melting point [°C]	Compound
86 to 88	O=C(O)c1ccc(CN([C@H](CO)c2ccccc2)S(=O)(=O)c2ccc(Cl)cc2)cc1 (hydrate or solvate) [Example 95, (S)-4-((4-Chloro-N-(2-hydroxy-1-phenylethyl)phenylsulfonamido)methyl)benzoic acid]
61 to 63	CC[C@@H](c1ccccc1)N(Cc1ccc(S(C)(=O)=O)cc1)S(=O)(=O)c1ccc(Cl)cc1 [Example 2, (S)-4-Chloro-N-(4-(methylsulfonyl)benzyl)-N-(1phenylpropyl)benzenesulfonamide]
108 to 110	CC[C@@H](c1ccccc1)N(Cc1ccc(C(=O)OC)cc1)S(=O)(=O)c1ccc(Cl)cc1 [Example 3, (S)-Methyl 4-((4-chloro-N-(1-phenylpropyl)phenylsulfonamido)methyl)benzoate]
104 to 106	COC(=O)c1ccc(CN([C@@H](CO)c2ccccc2)S(=O)(=O)c2ccc(Cl)cc2)cc1 [Example 7, (R)-Methyl 4-((4-chloro-N-(2-hydroxy-1-phenylethyl)phenylsulfonamido)methyl)benzoate]
105 to 106	COC(=O)c1ccc(CN([C@@H](C)c2ccccc2)S(=O)(=O)c2ccc(Cl)cc2)cc1 [Example 12, (S)-Methyl 4-((4-chloro-N-(1-phenylethyl)phenylsulfonamido)methyl)benzoate]
70 to 72	CC[C@@H](c1ccccc1)N(Cc1ccc(C(=O)OC)cc1)S(=O)(=O)c1ccc(C(F)(F)F)cc1 [Example 18, (S)-Methyl 4-((N-(1-phenylpropyl)-4-(trifluoromethyl)phenylsulfonamido)methyl)benzoate]
107 to 109	CC[C@@H](c1ccccc1)N(Cc1ccc(C(=O)OC)cc1)S(=O)(=O)c1ccc(F)cc1 [Example 21, (S)-Methyl 4-((4-fluoro-N-(1-phenylpropyl)phenylsulfonamido)methyl)benzoate]
176 to 178	CC[C@@H](c1ccccc1)N(Cc1ccc(C(=O)O)cc1OC)S(=O)(=O)c1ccc(Cl)cc1 [Example 23, (S)-4-((4-Chloro-N-(1-phenylpropyl)phenylsulfonamido)methyl)-3-methoxybenzoic acid]
105 to 107	CCC(c1ccccc1)N(Cc1ccc(C(=O)OC)cc1)S(=O)(=O)c1ccc(Cl)cc1 (stereo not shown) [Example 25, Methyl 4-((4-chloro-N-(1-phenylpropyl)phenylsulfonamido)methyl)benzoate]
82 to 84	CCC(c1ccccn1)N(Cc1ccc(C(=O)OC)cc1)S(=O)(=O)c1ccc(F)cc1 (stereo not shown) [Example 26, Methyl 4-((4-fluoro-N-(1-(pyridin-2-yl)propyl)phenylsulfonamido)methyl)benzoate]
95 to 97	CCC(c1ccc(F)cc1)N(Cc1ccc(C(=O)OC)cc1)S(=O)(=O)c1ccc(Cl)cc1 (stereo not shown) [Example 30, Methyl 4-((4-chloro-N-(1-(4-fluorophenyl)propyl)phenylsulfonamido)methyl)benzoate]
166 to 168	CCC(CC)N(Cc1ccc(S(C)(=O)=O)cc1)S(=O)(=O)c1ccc(Cl)cc1 [Example 31, 4-Chloro-N-(4-(methylsulfonyl)benzyl)-N-(pentan-3-yl)benzenesulfonamide]
78 to 80	CCC(CC)N(Cc1ccc(C(=O)OC)cc1)S(=O)(=O)c1ccc(F)cc1 [Example 32, Methyl 4-((4-fluoro-N-(pentan-3-yl)phenylsulfonamido)methyl)benzoate]
123 to 125	CCC(CC)N(Cc1ccc(C#N)cc1)S(=O)(=O)c1ccc(Cl)cc1 [Example 33, 4-Chloro-N-(4-cyanobenzyl)-N-(pentan-3-yl)benzenesulfonamide]
117 to 119	CCC(CC)N(Cc1ccc(C(=O)OC)cn1)S(=O)(=O)c1ccc(F)cc1 [Example 34, Methyl 6-((4-fluoro-N-(pentan-3-yl)phenylsulfonamido)methyl)nicotinate]
106 to 108	CCC(CC)N(Cc1ccc(C(=O)OC)cc1)S(=O)(=O)c1ccc(C)cc1 [Example 35, Methyl 4-((4-methyl-N-(pentan-3-yl)phenylsulfonamido)methyl)benzoate]
102 to 104	CCC(CC)N(Cc1ccc(C#N)cc1F)S(=O)(=O)c1ccc(F)cc1 [Example 36, N-(4-Cyano-2-fluorobenzyl)-4-fluoro-N-(pentan-3-yl)benzenesulfonamide]
145 to 147	CCC(CC)N(Cc1ccc(C(=O)O)cn1)S(=O)(=O)c1ccc(F)cc1 [Example 37, 6-((4-Fluoro-N-(pentan-3-yl)phenylsulfonamido)methyl)nicotinic acid]
95 to 97	CCC(CC)N(Cc1ccc(C(=O)OC)cc1)S(=O)(=O)c1ccc(Cl)cc1 [Example 40, Methyl 4-((4-chloro-N-(pentan-3-yl)phenylsulfonamido)methyl)benzoate]
103 to 105	COC(=O)c1ccc(CN(C(CF)CF)S(=O)(=O)c2ccc(F)cc2)cc1 [Example 41]

melting point [°C]	Compound
134 to 135	COC(=O)c1ccc(CN(C(CO)CO)S(=O)(=O)c2ccc(Cl)s2)cc1 [Example 42, Methyl 4-((5-chloro-N-(1,3-dihydroxypropan-2-yl)thiophene-2-sulfonamido)methyl)benzoate]
66 to 67	CC(C)N(Cc1ccc(Cl)c(Cl)c1)S(=O)(=O)c1ccc(Cl)s1 [Example 43, 5-Chloro-N-(3,4-dichlorobenzyl)-N-isopropylthiophene-2-sulfonamide]
110 to 112	COC(=O)c1ccc(CN(C(C)C)S(=O)(=O)c2ccc(Cl)cc2)cc1 [Example 44, Methyl 4-((4-chloro-N-isopropylphenylsulfonamido)methyl)benzoate]
118 to 120	COC(=O)c1ccc(CN(C(C)C)S(=O)(=O)c2ccc(F)cc2)cc1 [Example 45, Methyl 4-((4-fluoro-N-isopropylphenylsulfonamido)methyl)benzoate]
133 to 135	CC(C)N(Cc1ccc(Cl)c(Cl)c1)S(=O)(=O)c1cc2ccccc2s1 [Example 48, N-(3,4-Dichlorobenzyl)-N-isopropylbenzo[b]thiophene-2-sulfonamide]
85 to 87	O=C(O)c1ccc(CN([C@@H](CO)c2ccccc2)S(=O)(=O)c2ccc(Cl)cc2)cc1 [Example 51, (R)-4-((4-Chloro-N-(2-hydroxy-1-phenylethyl)phenylsulfonamido)methyl)benzoic acid]
118 to 120	CC[C@@H](c1ccccc1)N(Cc1ccc(C(=O)O)cc1F)S(=O)(=O)c1ccc(Cl)cc1 [Example 52, (S)-4-((4-Chloro-N-(1-phenylpropyl)phenylsulfonamido)methyl)-3-fluorobenzoic acid]
163 to 165	O=C(O)c1ccc(CN(C(CO)CO)S(=O)(=O)c2ccc(Cl)s2)cc1 [Example 53, 4-((5-Chloro-N-(1,3-dihydroxypropan-2-yl)thiophene-2-sulfonamido)methyl)benzoic acid]
108 to 110	CCC(c1ccc(C(F)(F)F)cc1)N(Cc1ccc(C(=O)O)cc1)S(=O)(=O)c1ccc(Cl)cc1 (stereo not shown) [Example 54, 4-((4-Chloro-N-(1-(4-(trifluoromethyl)phenyl)propyl)phenylsulfonamido)methyl)benzoic acid]
65 to 67	CC[C@@H](c1ccccc1)N(Cc1cccc(C(=O)O)c1)S(=O)(=O)c1ccc(Cl)cc1 [Example 59, (S)-3-((4-Chloro-N-(1-phenylpropyl)phenylsulfonamido)methyl)benzoic acid]
136 to 139	CC[C@@H](c1ccccc1)N(Cc1ccc(C(=O)NCC(=O)O)cc1)S(=O)(=O)c1ccc(Cl)cc1 [Example 64, (S)-2-(4-((4-Chloro-N-(1-phenylpropyl)phenylsulfonamido)methyl)benzamido)acetic acid]
108 to 110	CCC(CC)N(Cc1ccc(C#N)nc1)S(=O)(=O)c1ccc(Cl)cc1 [Example 72]
118 to 120	CCC(CC)N(Cc1ccc(C#N)nc1)S(=O)(=O)c1ccc(F)cc1 [Example 73, N-((6-Cyanopyridin-3-yl)methyl)-4-fluoro-N-(pentan-3-yl)benzenesulfonamide]
78 to 80	CC[C@@H](c1ccccc1)N(Cc1ccc(C(=O)NC[C@H](C)O)cc1)S(=O)(=O)c1ccc(Cl)cc1 [Example 80, 4-((4-Chloro-N—((S)-1-phenylpropyl)phenylsulfonamido)methyl)-N-((S)-2-hydroxypropyl)benzamide]
120 to 121	CC[C@@H](c1ccc(C#N)cc1)N(Cc1ccc(C#N)cc1)S(=O)(=O)c1ccc(Cl)cc1 [Example 84, (S)-4-Chloro-N-(4-cyanobenzyl)-N-(1-(4-cyanophenyl)propyl)benzenesulfonamide]
111 to 113	CCC(c1ccc(Cl)nc1)N(Cc1ccc(C(=O)O)cc1)S(=O)(=O)c1ccc(Cl)cc1 (stereo not shown) [Example 89, 4-((4-Chloro-N-(1-(6-chloropyridin-3-yl)propyl)phenylsulfonamido)methyl)benzoic acid]
128 to 130	COC(=O)c1ccc(CN([C@@H](CO)Cc2ccccc2)S(=O)(=O)c2ccc(Cl)cc2)cc1 [Example 94, (R)-Methyl 4-((4-chloro-N-(1-hydroxy-3-phenylpropan-2-yl)phenylsulfonamido)-methyl)benzoate]
132 to 133	CC[C@@H](c1ccc(C#N)cc1)N(Cc1ccc(C(=O)O)cc1)S(=O)(=O)c1ccc(Cl)cc1 [Example 103, (S)-4-((4-Chloro-N-(1-(4-cyanophenyl)propyl)phenylsulfonamido)methyl)benzoic acid]
120 to 121	CC[C@@H](c1ccccc1)N(Cc1ccc(C(=O)N2CCC[C@@H]2CO)cc1)S(=O)(=O)c1ccc(Cl)cc1 [Example 104, 4-Chloro-N-(4-((R)-2-(hydroxymethyl)pyrrolidine-1-carbonyl)benzyl)-N-((S)-1-phenylpropyl)benzenesulfonamide]
98 to 99	CC[C@@H](c1ccccc1)N(Cc1ccc(C(=O)OC)cc1)S(=O)(=O)c1ccc(Cl)c(Cl)c1 [Example 114, (S)-Methyl 4-((3,4-dichloro-N-(1-phenylpropyl)phenylsulfonamido)methyl)benzoate]

Reference: US20130310384A1, “Sulfonamide-Containing Compounds” (THE BRIGHAM AND WOMEN'S HOSPITAL, INC., priority 2010, published 2013)
